# Source: PubChem BioAssay (NCI)
#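 96-well plates; 48 h exposure; 5 concentrations. Endpoints by linear interpolation between flanking doses. Not reached: highest tested concentration assigned. At the TGI there is no net growth.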
# Columns and labels:
# Experiment in all cases: NCI-60 cell line screen, 48 h
# HOP-62 NSCLC = system: HOP-62 NSCLC
# HCT-116 colon = system: HCT-116 colon
# PC-3 prostate = system: PC-3 prostate
# MDA-N = system: MDA-N
# IGROV1 ovarian = system: IGROV1 ovarian
# CCRF-CEM leukemia = system: CCRF-CEM leukemia
# NCI-H522 lung = system: NCI-H522 lung
# UACC-62 melanoma = system: UACC-62 melanoma
# TK-10 renal = system: TK-10 renal
# SK-MEL-28 melanoma = system: SK-MEL-28 melanoma
# T-47D breast = system: T-47D breast
# UACC-257 melanoma = system: UACC-257 melanoma
# OVCAR-5 ovarian = system: OVCAR-5 ovarian
# SNB-75 CNS = system: SNB-75 CNS
# NCI/ADR-RES ovarian = system: NCI/ADR-RES ovarian
# EKVX NSCLC = system: EKVX NSCLC
# UO-31 renal = system: UO-31 renal
# A549 NSCLC = system: A549 NSCLC
# OVCAR-4 ovarian = system: OVCAR-4 ovarian
# ACHN renal = system: ACHN renal
SMILES,TGI (HOP-62 NSCLC),TGI (HCT-116 colon),TGI (PC-3 prostate),TGI (MDA-N),TGI (IGROV1 ovarian),TGI (CCRF-CEM leukemia),TGI (NCI-H522 lung),TGI (UACC-62 melanoma),TGI (TK-10 renal),TGI (SK-MEL-28 melanoma),TGI (T-47D breast),TGI (UACC-257 melanoma),TGI (OVCAR-5 ovarian),TGI (SNB-75 CNS),TGI (NCI/ADR-RES ovarian),TGI (EKVX NSCLC),TGI (UO-31 renal),TGI (A549 NSCLC),TGI (OVCAR-4 ovarian),TGI (ACHN renal)
CC(=O)c1c2c(cc3c1CC1(Cc4cc5c(cc4C1)C(=O)CCC5)C3)CCCC2 (stereo not drawn),43.4 µM,> 47.1 µM,> 83.5 µM,12.9 µM,> 30.8 µM,5.01 µM,31.4 µM,> 39.2 µM,> 100 µM,69.8 µM,> 81.7 µM,15.4 µM,> 100 µM,> 26.1 µM,> 100 µM,> 87.2 µM,> 90.6 µM,> 88.2 µM,> 100 µM,17.2 µM
C=C1C2CC3CCC2C(OC(=O)c2ccccc2C(=O)O)C13 (stereo not drawn),> 100 µM,> 100 µM,> 100 µM,> 100 µM,> 100 µM,> 100 µM,> 100 µM,> 100 µM,> 100 µM,> 100 µM,> 100 µM,> 100 µM,> 100 µM,> 100 µM,> 100 µM,> 100 µM,> 100 µM,> 100 µM,> 100 µM,> 100 µM
CCO[C@@]12CCC3CC4CC[C@@](OCC)(O1)C4C32 (stereo partly drawn),> 100 µM,> 100 µM,> 100 µM,> 100 µM,> 100 µM,> 100 µM,> 100 µM,> 100 µM,> 100 µM,> 100 µM,> 100 µM,> 100 µM,> 100 µM,> 100 µM,> 100 µM,> 100 µM,> 100 µM,> 100 µM,> 100 µM,> 100 µM
COC(=O)[C@@H](NC(=O)[C@H](N)Cc1ccc(N(CCCl)CCCl)cc1)C(C)C,> 100 µM,44.1 µM,> 100 µM,> 68 µM,45.1 µM,> 29.6 µM,33.1 µM,13.4 µM,56.7 µM,40.4 µM,35.5 µM,25 µM,> 100 µM,66.6 µM,40.8 µM,> 90.8 µM,33 µM,> 100 µM,36.7 µM,51.8 µM
CC1CC(=NC2CCCCC2)Nc2ccccc2N1Cc1ccccc1 (stereo not drawn),20.3 µM,> 35.6 µM,18.3 µM,12.5 µM,8.61 µM,> 36.4 µM,13.6 µM,3.69 µM,25.2 µM,17.7 µM,20.7 µM,13.2 µM,24 µM,3.18 µM,19.9 µM,21 µM,13.3 µM,16.5 µM,20.2 µM,22.8 µM
Cc1cccc(Nc2nc3ccccc3nc2NS(=O)(=O)c2ccccc2)c1,87.1 µM,> 100 µM,72 µM,> 100 µM,> 100 µM,86.5 µM,73.9 µM,> 100 µM,> 100 µM,> 100 µM,> 100 µM,> 100 µM,> 100 µM,63.8 µM,> 100 µM,> 100 µM,59 µM,> 100 µM,19.7 µM,> 100 µM
O=[N+]([O-])C(C(Cl)=C(Cl)Cl)=C(n1nnc2ccccc21)n1nnc2ccccc21,> 68.4 µM,50.2 µM,> 67.3 µM,61.2 µM,60.4 µM,43.9 µM,38.6 µM,> 58.2 µM,> 63.7 µM,64.9 µM,> 80.6 µM,> 68.1 µM,> 66.3 µM,> 58.1 µM,55.9 µM,> 74.6 µM,52.6 µM,> 72.4 µM,66.3 µM,> 65.8 µM
Cc1ccc(C(C)C)c(OCC(=O)N/N=C/c2c[nH]c3ccc(Br)cc23)c1,22 µM,11 µM,4.43 µM,2.94 µM,13.1 µM,7 µM,8.17 µM,8.92 µM,9.15 µM,21.8 µM,24.8 µM,15.9 µM,17.6 µM,5.95 µM,6.6 µM,11.1 µM,13.7 µM,12.5 µM,13.6 µM,16.5 µM
CCN(CC)/[N+]([O-])=N/OCOC,> 100 µM,> 100 µM,> 100 µM,> 100 µM,> 100 µM,> 100 µM,> 100 µM,> 100 µM,> 100 µM,> 100 µM,> 100 µM,> 100 µM,> 100 µM,> 100 µM,> 100 µM,> 100 µM,> 100 µM,> 100 µM,> 100 µM,> 100 µM
CC[C@@H]([C@H](O)c1ccccc1Cl)[N+](=O)[O-],> 100 µM,> 100 µM,> 100 µM,> 100 µM,> 100 µM,> 100 µM,> 100 µM,> 100 µM,> 100 µM,> 100 µM,> 100 µM,> 100 µM,> 100 µM,> 100 µM,> 100 µM,> 100 µM,> 100 µM,> 100 µM,> 100 µM,> 100 µM
O=C1N/C(=N\N=C\c2ccccc2)C2(CCCCC2)O1,> 100 µM,> 100 µM,> 100 µM,> 100 µM,> 100 µM,61.1 µM,> 100 µM,> 100 µM,> 100 µM,> 100 µM,> 100 µM,> 100 µM,> 100 µM,88.5 µM,> 100 µM,> 100 µM,> 100 µM,> 100 µM,> 100 µM,> 100 µM
CO[C@@H]1C[C@H]2[C@@H]3CC[C@H]([C@H](C)COC(C)=O)[C@@]3(C)CC[C@@H]2[C@@]2(C)CC[C@H]3C[C@]312,> 100 µM,> 100 µM,> 100 µM,> 100 µM,> 100 µM,> 100 µM,> 100 µM,,> 100 µM,> 100 µM,> 100 µM,> 100 µM,> 100 µM,> 100 µM,> 100 µM,> 100 µM,> 100 µM,> 100 µM,> 100 µM,> 100 µM
C=CCc1oc(C)nc1CCCC,> 100 µM,> 100 µM,> 100 µM,> 100 µM,> 100 µM,> 100 µM,> 100 µM,> 100 µM,> 100 µM,> 100 µM,> 100 µM,> 100 µM,> 100 µM,> 100 µM,> 100 µM,> 100 µM,> 100 µM,> 100 µM,> 100 µM,> 100 µM
C=C1CCC2[C@](C)(CCC[C@]2(C)C(=O)O)[C@@H]1CCc1ccoc1 (stereo partly drawn),> 100 µM,88.4 µM,> 100 µM,> 100 µM,84.8 µM,> 100 µM,> 100 µM,> 100 µM,74.7 µM,> 100 µM,> 100 µM,83.5 µM,> 100 µM,> 100 µM,98.2 µM,> 100 µM,> 100 µM,> 100 µM,> 100 µM,> 100 µM
Clc1cc(OCc2nn3c(Cc4ccccc4)nnc3s2)c(Cl)cc1OCc1nn2c(Cc3ccccc3)nnc2s1,> 100 µM,> 100 µM,> 100 µM,> 100 µM,> 100 µM,> 100 µM,> 100 µM,> 100 µM,> 100 µM,> 100 µM,> 100 µM,> 100 µM,> 100 µM,9.97 µM,> 100 µM,> 100 µM,> 100 µM,> 100 µM,> 100 µM,> 100 µM
CC(=O)O[C@H]1CC[C@H]2[C@@H]3CCC4=C/C(=N/OCCN(C)C)CC[C@]4(C)[C@H]3CC[C@]12C,27.5 µM,16 µM,27.3 µM,14.4 µM,26.2 µM,10.1 µM,22.7 µM,15.4 µM,27 µM,27.8 µM,19.5 µM,21.1 µM,31.9 µM,19.1 µM,27.8 µM,29 µM,28.1 µM,25.6 µM,23.5 µM,26.2 µM
O=[N+]([O-])c1cccc(-c2cn3c(n2)Cc2ccccc2C3)c1,> 100 µM,> 100 µM,> 100 µM,> 100 µM,> 100 µM,> 100 µM,> 100 µM,> 100 µM,> 100 µM,> 100 µM,> 100 µM,> 100 µM,79.9 µM,> 100 µM,> 100 µM,> 100 µM,> 100 µM,> 100 µM,> 100 µM,> 100 µM
C/C(O)=C(\C=NC(=S)c1cccnc1)C(=O)Nc1ccccc1C,> 100 µM,> 100 µM,> 100 µM,> 100 µM,> 100 µM,> 100 µM,> 100 µM,> 100 µM,> 100 µM,> 100 µM,> 100 µM,> 100 µM,> 100 µM,> 100 µM,> 100 µM,> 100 µM,> 100 µM,> 100 µM,> 100 µM,> 100 µM
CC(NP(=O)(c1ccccc1)c1ccccc1)c1ccccc1 (stereo not drawn),> 100 µM,> 100 µM,> 100 µM,> 100 µM,> 100 µM,> 100 µM,> 100 µM,> 100 µM,> 100 µM,> 100 µM,> 100 µM,> 100 µM,> 100 µM,> 100 µM,> 100 µM,> 100 µM,> 100 µM,> 100 µM,> 100 µM,> 100 µM
CC(C)[C@@H]1CC[C@@H](C)C[C@H]1OC(=O)/C=C1\C(C(=O)O[C@@H]2C[C@H](C)CC[C@H]2C(C)C)[C@H]2C=C[C@@H]1O2 (stereo partly drawn),> 100 µM,> 100 µM,> 100 µM,> 100 µM,> 100 µM,> 100 µM,> 100 µM,> 100 µM,> 100 µM,> 100 µM,> 100 µM,> 100 µM,> 100 µM,> 100 µM,> 100 µM,> 100 µM,> 100 µM,> 100 µM,> 100 µM,> 100 µM
COc1ccc(-c2c(-c3ccccc3)c(C)nc3[nH]c(=S)[nH]c(=S)c23)cc1OC,89.6 µM,64.9 µM,> 100 µM,> 100 µM,> 100 µM,72.5 µM,85.8 µM,40.2 µM,> 100 µM,52.8 µM,> 100 µM,> 100 µM,> 100 µM,> 100 µM,> 100 µM,> 100 µM,68.4 µM,> 100 µM,> 100 µM,> 100 µM
Cc1cc2c(nn1)CCc1c-2no[n+]1[O-],> 100 µM,> 100 µM,> 100 µM,> 100 µM,> 100 µM,> 100 µM,> 100 µM,> 100 µM,> 100 µM,> 100 µM,> 100 µM,> 100 µM,> 100 µM,> 100 µM,> 100 µM,> 100 µM,> 100 µM,> 100 µM,> 100 µM,> 100 µM
Cc1c(NC(=O)CSC(=S)N(C)C)c(=O)n(-c2ccccc2)n1C,> 100 µM,> 100 µM,> 100 µM,> 100 µM,> 100 µM,> 100 µM,> 100 µM,,> 100 µM,> 100 µM,> 100 µM,> 100 µM,> 100 µM,> 100 µM,> 100 µM,> 100 µM,> 100 µM,> 100 µM,> 100 µM,> 100 µM
